From article PMC10959927, “Platinum iodido drugs show potential anti-tumor activity, affecting cancer cell metabolism and inducing ROS and senescence in gastrointestinal cancer cells” (Communications Biology, 2024)
Several values for one entry are separate records, joined by “and”; a condition that tells them apart may be missing. Identical values can stand only once. Like-named read-outs stand apart in the source and are kept apart here.

Assays:
AGS cells [1] = test: Cell viability, crystal violet staining; settings: read-out: IC50 concentration (± SD) at 48 h, AGS, 48 h
Procedure: (§1) Cell viability was assessed using a crystal violet-based staining method. […] The cells (2 × 10^5) were seeded in 24-multiwell dishes in 0.5 mL of complete medium and incubated overnight. […] After 48 h, cells were fixed with 1% glutaraldehyde (20–30 min), washed with distilled water, and stained with 0.1% crystal violet. […] IC50 were calculated by using GraphPad Prism (version 8.0). Nonlinear regression was used to fit the data to the log (inhibitor) versus response (variable slope).

MKN45 cells [2] = test: Cell viability, crystal violet staining; settings: read-out: IC50 concentration (± SD) at 48 h, 48 h
Procedure: as §1

PANC1 cells [3] = test: Cell viability, crystal violet staining; settings: read-out: IC50 concentration (± SD) at 48 h, 48 h
Procedure: as §1

AGS cells [4] = test: Immunofluorescence of γ-H2AX and 53BP1 foci; assay type: cell-based, human; settings: for foci/cell, share of cells in class (Suma 100) / foci/cell, number of cells in class: Fig. 3B; for foci/cell, number of cells in class: cell count
Procedure: (§2) Cells (7 × 10^4) were seeded on 20 mm coverslips. […] Coverslips were incubated for 1 h with the primary antibody (Cell Signaling: H2AX Ser139 (#2595) and 53BP1 (#4937)) at room temperature, followed by a 1 h incubation with the appropriate secondary antibody. DNA was stained with DAPI. Fluorescence microscopy was performed using a NIKON Eclipse 90i. The image analysis was performed using the software program Nikon NIS-Elements and Image J.

PANC1 cells [5] = test: Immunofluorescence of γ-H2AX and 53BP1 foci; assay type: cell-based, human; settings: for foci/cell, share of cells in class (Suma 100) / foci/cell, number of cells in class: PANC1, Fig. 3B; for foci/cell, number of cells in class: cell count
Procedure: as §2

AGS cells [6] = test: SA-β-Gal activity, CellEvent Senescence Green flow cytometry;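 note: IC50 concentration of each compound relative to untreated control set as 1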; assay type: cell-based, human; settings: Fig. 3A, replicate values
Procedure: (§3) SA-β-Gal activity was measured following two different approaches. (i) AGS, MKN45 and PANC1 cells (5 × 10^4) were seeded in 24-multiwell dishes and incubated overnight. […] For flow cytometry cell senescence detection, cells were tripsinized, fixed for 15 min with PFA 4% and stained with the CellEvent Senescense Green Flow Cytometry Assay Kit (C10840, Invitrogen) according to manufacturer’s instructions. CellEvent Senescense Green Probe was used at a 1:500 dilution and fluorescence was detected using the filter (Ex488nm/Em530/30) BL1 with a 4-laser Attune NxT Acoustic Cytometer (Thermo Fisher Scientific). […] After 3 h, the treatments were removed, new supplemented medium was added, and cells were incubated for an additional 24 h. Finally, SA-β-Gal staining was performed using the Senescence Cells Histochemical Staining Kit (CS0030-1KT) according to the manufacturer’s instructions.

MKN45 cells [7] = test: as above; assay type: cell-based, human; settings: Fig. 3A, replicate values
Procedure: as §3

PANC1 cells [8] = test: as above; assay type: cell-based, human; settings: Fig. 3A, replicate values
Procedure: as §3

AGS cells [9] = test: RT-qPCR gene expression (CDKN1A, IL6, MMP1, MAP2K3, SOD1, SOD2, CAT, MKI67, TNFRSF10D); assay type: cell-based, human
Procedure: (§4) Total cellular RNA was extracted using Tri-Reagent (Life Technologies), following the manufacturer’s instructions. One μg of total RNA was primed with random primers and cDNA synthesized with an M-MLV reverse transcriptase following the manufacturer’s instructions (Promega). Target genes were amplified using a SYBR Green polymerase chain reaction assay, working with the specific primer sets listed in Table 4.
(§5) Thermal cycling of the qPCR reaction was initiated with a denaturation step at 95 °C for 10 min. The process consisted of 40 cycles (denaturation at 95 °C for 15 sec, annealing at 60 °C for 30 sec, and elongation at 75 °C for 30 sec). PCR amplifications were carried out in a StepOne Real‐time PCR System (Applied Biosystems, 4376357). Relative mRNA levels were calculated by the delta-Ct method (2-ΔΔCt), where each 1-Ct difference equals a two-fold change in transcript abundance, using GAPDH as an endogenous gene reference. ΔΔCT represents the difference between the mean ΔCT value of the cells tested and the mean ΔCT value of the calibrator, both calculated for the same PCR run.

MKN45 cells [10] = test: as above; assay type: cell-based, human
Procedure: as §4, §5

PANC1 cells [11] = test: as above; assay type: cell-based, human
Procedure: as §4, §5

[12] = MKN45, Fig. 3C, replicate values
[13] = PANC1, Fig. 3C, replicate values
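Throughout, for Fold change % Senescence: IC50 concentration of each compound relative to untreated control set as 1.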

[NH2][Pt]([NH2])([Cl])[Cl] [CDDP, cisplatin, reference compound]
IC50 (AGS cells [1]; NAC (+) 0.5 mM): 22.7 ± 4.03 µM
IC50 (AGS cells [1]; NAC (-)): 26.7 ± 2.21 µM
IC50 (MKN45 cells [2]; MKN45, NAC (+) 0.5 mM): 10.2 ± 1.56 µM
IC50 (MKN45 cells [2]; MKN45, NAC (-)): 10 µM and 9.45 µM
IC50 (PANC1 cells [3]; PANC1, NAC (+) 0.5 mM): 9.46 ± 1.29 µM
IC50 (PANC1 cells [3]; PANC1, NAC (-)): 10 µM and 12.3 µM
foci/cell, share of cells in class (Suma 100) (AGS cells [4]; class 16-30 foci/cell): 23.0769
foci/cell, number of cells in class (AGS cells [4]; class 16-30 foci/cell): 18
foci/cell, share of cells in class (Suma 100) (AGS cells [4]; class 31-45 foci/cell): 26.9231
foci/cell, number of cells in class (AGS cells [4]; class 31-45 foci/cell): 21
foci/cell, share of cells in class (Suma 100) (AGS cells [4]; class 46-60 foci/cell): 21.7949
foci/cell, number of cells in class (AGS cells [4]; class 46-60 foci/cell): 17
foci/cell, share of cells in class (Suma 100) (AGS cells [4]; class <15 foci/cell): 21.7949
foci/cell, number of cells in class (AGS cells [4]; class <15 foci/cell): 17
foci/cell, share of cells in class (Suma 100) (AGS cells [4]; class >61 foci/cell): 6.41
foci/cell, number of cells in class (AGS cells [4]; class >61 foci/cell): 5
foci/cell: number of cells with 16-30 foci (AGS cells [4]; Fig. S4B, cell counts): 35
foci/cell: number of cells with 31-45 foci (AGS cells [4]; Fig. S4B, cell counts): 15
foci/cell: number of cells with 46-60 foci (AGS cells [4]; Fig. S4B, cell counts): 5
foci/cell: number of cells with <15 foci (AGS cells [4]; Fig. S4B, cell counts): 45
foci/cell: number of cells with >61 foci (AGS cells [4]; Fig. S4B, cell counts): 4
foci/cell: share of cells with 16-30 foci (Suma 100) (AGS cells [4]; Fig. S4B, share of N): 33.6538
foci/cell: share of cells with 31-45 foci (Suma 100) (AGS cells [4]; Fig. S4B, share of N): 14.4231
foci/cell: share of cells with 46-60 foci (Suma 100) (AGS cells [4]; Fig. S4B, share of N): 4.808
foci/cell: share of cells with <15 foci (Suma 100) (AGS cells [4]; Fig. S4B, share of N): 43.2692
foci/cell: share of cells with >61 foci (Suma 100) (AGS cells [4]; Fig. S4B, share of N): 3.846
foci/cell: number of cells with 16-30 foci (PANC1 cells [5]; PANC1, Fig. S4B, cell counts): 32
foci/cell: number of cells with 31-45 foci (PANC1 cells [5]; PANC1, Fig. S4B, cell counts): 36
foci/cell: number of cells with 46-60 foci (PANC1 cells [5]; PANC1, Fig. S4B, cell counts): 25
foci/cell: number of cells with <15 foci (PANC1 cells [5]; PANC1, Fig. S4B, cell counts): 21
foci/cell: number of cells with >61 foci (PANC1 cells [5]; PANC1, Fig. S4B, cell counts): 22
foci/cell: share of cells with 16-30 foci (Suma 100) (PANC1 cells [5]; PANC1, Fig. S4B, share of N): 23.5294
foci/cell: share of cells with 31-45 foci (Suma 100) (PANC1 cells [5]; PANC1, Fig. S4B, share of N): 26.4706
foci/cell: share of cells with 46-60 foci (Suma 100) (PANC1 cells [5]; PANC1, Fig. S4B, share of N): 18.3824
foci/cell: share of cells with <15 foci (Suma 100) (PANC1 cells [5]; PANC1, Fig. S4B, share of N): 15.4412
foci/cell: share of cells with >61 foci (Suma 100) (PANC1 cells [5]; PANC1, Fig. S4B, share of N): 16.1765
foci/cell, share of cells in class (Suma 100) (PANC1 cells [5]; class 16-30 foci/cell): 10
foci/cell, number of cells in class (PANC1 cells [5]; class 16-30 foci/cell): 11
foci/cell, share of cells in class (Suma 100) (PANC1 cells [5]; class 31-45 foci/cell): 23.6364
foci/cell, number of cells in class (PANC1 cells [5]; class 31-45 foci/cell): 26
foci/cell, share of cells in class (Suma 100) (PANC1 cells [5]; class 46-60 foci/cell): 20
foci/cell, number of cells in class (PANC1 cells [5]; class 46-60 foci/cell): 22
foci/cell, share of cells in class (Suma 100) (PANC1 cells [5]; class <15 foci/cell): 6.364
foci/cell, number of cells in class (PANC1 cells [5]; class <15 foci/cell): 7
foci/cell, share of cells in class (Suma 100) (PANC1 cells [5]; class >61 foci/cell): 40
foci/cell, number of cells in class (PANC1 cells [5]; class >61 foci/cell): 44
Fold change % Senescence (AGS cells [6]): 1.16 fold change and 1.15 fold change and 1.2 fold change
Fold change % Senescence (MKN45 cells [7]): 1.67 fold change and 1.92 fold change and 1.87 fold change
Fold change % Senescence (PANC1 cells [8]): 1.64 fold change and 1.11 fold change and 1.53 fold change
CDKN1A, Fold change vs GAPDH (AGS cells [9]; Fig. 3C, replicate values): 19.195 fold change and 16.0881 fold change and 22.9019 fold change
IL-6, Fold change vs GAPDH (AGS cells [9]; Fig. 3C, replicate values): 0.7415 fold change and 0.5536 fold change and 0.449 fold change
MMP-1, Fold change vs GAPDH (AGS cells [9]; Fig. 3C, replicate values): 4.748 fold change and 3.523 fold change and 6.399 fold change
Fold change MAP2K3 vs GAPDH (AGS cells [9]; Fig. 4B, replicate values): 3.776 fold change and 3.2606 fold change and 4.374 fold change
TNFRSF10D Fold change vs GAPDH (AGS cells [9]; Fig. S4C): 10.7682 fold change and 9.829 fold change and 11.7968 fold change
CAT (Fold change vs GAPDH) (AGS cells [9]; mRNA vs Control = 1): 0.4339 Fold change and 0.4032 Fold change and 0.467 Fold change
SOD1 (Fold change vs GAPDH) (AGS cells [9]; mRNA vs Control = 1): 1.248 Fold change and 1.114 Fold change and 1.397 Fold change
SOD2 (Fold change vs GAPDH) (AGS cells [9]; mRNA vs Control = 1): 1.83 Fold change and 1.608 Fold change and 2.083 Fold change
MKI67 Fold change vs GAPDH (MKN45 cells [10]; MKN45, Fig. S4C): 0.592 fold change and 0.4427 fold change and 0.7916 fold change
TNFRSF10D Fold change vs GAPDH (MKN45 cells [10]; MKN45, Fig. S4C): 0.5932 fold change and 0.4461 fold change and 0.7888 fold change
CAT (Fold change vs GAPDH) (MKN45 cells [10]; MKN45, mRNA vs Control = 1): 1.496 Fold change and 1.261 Fold change and 1.775 Fold change
SOD1 (Fold change vs GAPDH) (MKN45 cells [10]; MKN45, mRNA vs Control = 1): 1.684 Fold change and 1.471 Fold change and 1.928 Fold change
SOD2 (Fold change vs GAPDH) (MKN45 cells [10]; MKN45, mRNA vs Control = 1): 5.8142 Fold change and 4.057 Fold change and 3.7805 Fold change
CDKN1A, Fold change vs GAPDH (MKN45 cells [10]; [12]): 4.774 fold change and 4.07 fold change and 5.599 fold change
IL-6, Fold change vs GAPDH (MKN45 cells [10]; [12]): 1.95 fold change and 3.642 fold change and 4.704 fold change
MMP-1, Fold change vs GAPDH (MKN45 cells [10]; [12]): 3.347 fold change and 2.194 fold change and 5.104 fold change
Fold change MAP2K3 vs GAPDH (MKN45 cells [10]; MKN45, Fig. 4B, replicate values): 2.858 fold change and 2.103 fold change and 3.884 fold change
MKI67 Fold change vs GAPDH (PANC1 cells [11]; PANC1, Fig. S4C): 0.584 fold change and 0.4541 fold change and 0.7511 fold change
TNFRSF10D Fold change vs GAPDH (PANC1 cells [11]; PANC1, Fig. S4C): 2.899 fold change and 2.5476 fold change and 3.299 fold change
CAT (Fold change vs GAPDH) (PANC1 cells [11]; PANC1, mRNA vs Control = 1): 0.9643 Fold change and 0.7898 Fold change and 1.177 Fold change
SOD1 (Fold change vs GAPDH) (PANC1 cells [11]; PANC1, mRNA vs Control = 1): 1.201 Fold change and 1.761 Fold change and 1.789 Fold change
SOD2 (Fold change vs GAPDH) (PANC1 cells [11]; PANC1, mRNA vs Control = 1): 0.4267 Fold change and 0.395 Fold change and 0.4609 Fold change
CDKN1A, Fold change vs GAPDH (PANC1 cells [11]; [13]): 2.689 fold change and 2.397 fold change and 3.018 fold change
IL-6, Fold change vs GAPDH (PANC1 cells [11]; [13]): 6.723 fold change and 5.78 fold change and 7.821 fold change
MMP-1, Fold change vs GAPDH (PANC1 cells [11]; [13]): 3.584 fold change and 2.804 fold change and 4.175 fold change
Fold change MAP2K3 vs GAPDH (PANC1 cells [11]; PANC1, Fig. 4B, replicate values): 2.138 fold change and 1.804 fold change and 2.534 fold change
